In PubChem BioAssay (NCI):
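Tested at 5 concentrations; 48 h exposure; 96-well plates; endpoints linearly interpolated, else capped at highest concentration. Here, GI50 denotes the concentration required for 50% inhibition of growth. TGI is the concentration that stops growth completely.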

Key:
Test in all cases: inhibition of tumour cell growth, NCI panel, 48 h
[1] = tested on: 786-0 renal
[2] = tested on: A498 renal
[3] = tested on: A549 NSCLC
[4] = tested on: ACHN renal
[5] = tested on: BT-549 breast
[6] = tested on: CAKI-1 renal
[7] = tested on: CCRF-CEM leukemia
[8] = tested on: COLO 205 colon
[9] = tested on: DU-145 prostate
[10] = tested on: EKVX NSCLC
[11] = tested on: HCC-2998 colon
[12] = tested on: HCT-116 colon
[13] = tested on: HCT-15 colon
[14] = tested on: HL-60(TB) leukemia
[15] = tested on: HOP-62 NSCLC
[16] = tested on: HOP-92 NSCLC
[17] = tested on: HS 578T breast
[18] = tested on: HT29 colon
[19] = tested on: IGROV1 ovarian
[20] = tested on: K-562 leukemia
[21] = tested on: KM12 colon
[22] = tested on: LOX IMVI melanoma
[23] = tested on: M14 melanoma
[24] = tested on: MALME-3M melanoma
[25] = tested on: MCF7 breast
[26] = tested on: MDA-MB-231 breast
[27] = tested on: MDA-MB-435
[28] = tested on: MOLT-4 leukemia
[29] = tested on: NCI-H226 lung
[30] = tested on: NCI-H23 lung
[31] = tested on: NCI-H460 lung
[32] = tested on: NCI-H522 lung
[33] = tested on: NCI/ADR-RES ovarian
[34] = tested on: OVCAR-3 ovarian
[35] = tested on: OVCAR-4 ovarian
[36] = tested on: OVCAR-5 ovarian
[37] = tested on: OVCAR-8 ovarian
[38] = tested on: PC-3 prostate
[39] = tested on: RPMI-8226 leukemia
[40] = tested on: RXF 393 renal
[41] = tested on: SF-268 CNS
[42] = tested on: SF-295 CNS
[43] = tested on: SF-539 CNS
[44] = tested on: SK-MEL-2 melanoma
[45] = tested on: SK-MEL-28 melanoma
[46] = tested on: SK-MEL-5 melanoma
[47] = tested on: SK-OV-3 ovarian
[48] = tested on: SN12C renal
[49] = tested on: SNB-19 CNS
[50] = tested on: SNB-75 CNS
[51] = tested on: SR leukemia
[52] = tested on: SW-620 colon
[53] = tested on: T-47D breast
[54] = tested on: TK-10 renal
[55] = tested on: U251 CNS
[56] = tested on: UACC-257 melanoma
[57] = tested on: UACC-62 melanoma
[58] = tested on: UO-31 renal

Q: Which results are given for `C#CCn1cccc1CNc1ccc(OC)cc1`?
A: GI50 [1]: > 100 µM; TGI [1]: > 100 µM; GI50 [2]: 8.54 µM; TGI [2]: > 100 µM; GI50 [3]: > 100 µM; TGI [3]: > 100 µM; GI50 [4]: 97.2 µM; TGI [4]: > 100 µM; GI50 [5]: 57 µM; TGI [5]: > 100 µM; GI50 [6]: 50 µM; TGI [6]: > 100 µM; GI50 [7]: 41 µM; TGI [7]: > 100 µM; GI50 [8]: > 100 µM; TGI [8]: > 100 µM; GI50 [9]: > 100 µM; TGI [9]: > 100 µM; GI50 [10]: 25.5 µM; TGI [10]: > 100 µM; GI50 [11]: > 100 µM; TGI [11]: > 100 µM; GI50 [12]: 75.7 µM; TGI [12]: > 100 µM; GI50 [13]: > 100 µM; TGI [13]: > 100 µM; GI50 [14]: 34.6 µM; TGI [14]: > 100 µM; GI50 [15]: > 100 µM; TGI [15]: > 100 µM; GI50 [16]: 2.94 µM; TGI [16]: > 100 µM; GI50 [17]: > 100 µM; TGI [17]: > 100 µM; GI50 [18]: > 100 µM; TGI [18]: > 100 µM; GI50 [19]: 53.7 µM; TGI [19]: > 100 µM; GI50 [20]: 44.6 µM; TGI [20]: > 100 µM; GI50 [21]: 51.7 µM; TGI [21]: > 100 µM; GI50 [22]: 56.9 µM; TGI [22]: > 100 µM; GI50 [23]: 82 µM; TGI [23]: > 100 µM; GI50 [24]: > 100 µM; TGI [24]: > 100 µM; GI50 [25]: 79.6 µM; TGI [25]: > 100 µM; GI50 [26]: > 100 µM; TGI [26]: > 100 µM; GI50 [27]: 78.9 µM; TGI [27]: > 100 µM; GI50 [28]: > 100 µM; TGI [28]: > 100 µM; GI50 [29]: > 100 µM; TGI [29]: > 100 µM; GI50 [30]: 46.4 µM; TGI [30]: > 100 µM; GI50 [31]: > 100 µM; TGI [31]: > 100 µM; GI50 [32]: 41.6 µM; TGI [32]: > 100 µM; GI50 [33]: > 100 µM; TGI [33]: > 100 µM; GI50 [34]: 64.4 µM; TGI [34]: > 100 µM; GI50 [35]: 28.7 µM; TGI [35]: > 100 µM; GI50 [36]: > 100 µM; TGI [36]: > 100 µM; GI50 [37]: > 100 µM; TGI [37]: > 100 µM; GI50 [38]: 16 µM; TGI [38]: > 100 µM; GI50 [39]: 25 µM; TGI [39]: > 100 µM; GI50 [40]: > 100 µM; TGI [40]: > 100 µM; GI50 [41]: > 100 µM; TGI [41]: > 100 µM; GI50 [42]: > 100 µM; TGI [42]: > 100 µM; GI50 [43]: > 100 µM; TGI [43]: > 100 µM; GI50 [44]: > 100 µM; TGI [44]: > 100 µM; GI50 [45]: > 100 µM; TGI [45]: > 100 µM; GI50 [46]: 67.8 µM; TGI [46]: > 100 µM; GI50 [47]: > 100 µM; TGI [47]: > 100 µM; GI50 [48]: > 100 µM; TGI [48]: > 100 µM; GI50 [49]: > 100 µM; TGI [49]: > 100 µM; GI50 [50]: > 100 µM; TGI [50]: > 100 µM; GI50 [51]: > 100 µM; TGI [51]: > 100 µM; GI50 [52]: > 100 µM; TGI [52]: > 100 µM; GI50 [53]: 37.8 µM; TGI [53]: > 100 µM; GI50 [54]: > 100 µM; TGI [54]: > 100 µM; GI50 [55]: > 100 µM; TGI [55]: > 100 µM; GI50 [56]: 45.5 µM; TGI [56]: > 100 µM; GI50 [57]: 74.1 µM; TGI [57]: > 100 µM; GI50 [58]: 39.1 µM; TGI [58]: > 100 µM
